Measurements reported in patent US7772255B2, “Method of treating tumors with azaxanthones” (Supratek Pharma, Inc., priority 2005, dated 2010).
Counter-ions that a name gives are not always drawn. Like-named read-outs stand apart in the source and are kept apart here.

Columns and labels:
[1] = Pharmacokinetics and bioavailability in normal mice; format: in vivo, mouse; settings: for AUC / Cmax / MRT / clearance / half-life / Vd / bioavailability: female; for Vd: read-out: Vss; for bioavailability: C57BL/6, plasma, po, mouse, sodium salt, read-out: Bioavailability for oral administration
Method: Female C57BL/6 mice were used at 6 to 7 weeks of age. The animals were given food (Purina mouse chow, Pro Lab PMH 4018, Trademark of Agway, Syracuse, N.Y., USA) and water ad libitum. The mice were kept at five per cage under light (12 h light/dark cycle) and temperature (22±1° C.) controlled environment. The animal studies were conducted according to the “Guidelines for Care and Use of Experimental Animals”.
Amlexanox sodium salt dosing solutions for oral administration were prepared by dissolving amlexanox sodium salt, prepared according to Example 10, in distilled water. amlexanox sodium salt dosing solutions for i.v. administration were prepared by dissolving amlexanox sodium salt, prepared according to Example 10, in isotonic solution (0.9% NaCl). Amlexanox meglumine formulation dosing solutions for oral administration were prepared by dissolving amlexanox meglumine formulation F1, prepared according to Example 12, in distilled water. Amlexanox meglumine formulation dosing solutions for i.v. administration were prepared by dissolving amlexanox meglumine formulation F1, prepared according to Example 13, in isotonic solution (0.9% NaCl). 1 mg/mL solution of amlexanox was used for dosing 10 mg/kg, and 10 mg/mL solution was used for dosing 100 mg/kg.
Amlexanox-X dosing solutions were administered i.v. and orally in normal mice (four animals per each time point). After various time intervals (15, 30 min and 1, 3, 6 and 8 h for Amlexanox-X Na salt and 15, 30 min, 1, 2 and 6 h for Amlexanox-X+MG) post-injection, blood and major organs (liver, kidney, lung and brain) were collected. Then, blood was immediately centrifuged, and plasma was separated. The plasma and tissue samples were immediately frozen in dry ice and stored at −80° C. until further use.
The defrosted plasma samples were centrifuged at 2000 g for 5 min, and aliquots (10 μL) of each sample were transferred into 1.5-ml plastic tubes. The samples were diluted with PBS in various amounts of times and aliquots of 100 μL were transferred into the other 1.5-ml plastic tubes. The samples were extracted with 1 mL of 100% acetonitrile for 10 min on 180° rotator. Then, the tubes were centrifuged at 10,000 g for 15 min.
The supernatant was separated to glass tubes and evaporated in a stream of nitrogen at […]. until dryness. The dried samples were kept at −20° C. until HPLC analysis. The samples were reconstituted in 100 μL of mobile phase analyze before analyze by HPLC.
The samples were analysed by HPLC using 250×4.6 mm, Phenomenex C18 Luna, 5 micron column, 1 mL/min flow rate of mobile phase 73% of 25 mM sodium phosphate pH 7.5 and 27% acetonitrile; fluorescent deyection λexcitation=348 nm, λemission=404 nm.
The concentrations of amlexanox in samples were determined by comparison with calibration curve obtained from spiked mouse plasma samples using the same analytical method. The areas under the curves (AUC) of amlexanox were calculated by trapezoidal method. Main pharmacokinetic parameters of amlexanox and bioavailability if amlexanox Na salt and amlexanox with meglumine formulation are shown in Tables below.

[2] = test system: metastatic (Stage III-Stage IV) breast cancer; assay: Amlexanox monotherapy in advanced metastatic breast cancer resistant to prior chemotherapy (Example 8); format: in vivo, human; settings: 500 mg orally twice daily; baseline until nine months after administration and follow up
Method: In this study 44 women patients with metastatic (Stage III-Stage IV) breast cancer who have relapsed following prior cytotoxic chemotherapy regiments containing anthracyclines and/or taxanes are treated by administering 500 mg amlexanox twice daily with two amlexanox 250 mg tablets prepared in Example 3 taken twice daily orally as outpatients. This treatment is carried out for determining the overall (complete and partial) response rate. In this group, the stable disease rate of patients treated with amlexanox is determined. In addition, in each of the treated patients, the time to disease progression is also determined. The results of this study are compared to untreated patients with metastatic (Stage III-Stage IV) breast cancer who have relapsed following the same prior cytotoxic chemotherapy regiment. […] The patients are evaluated by standard WHO and/or RECIST criteria for response and disease status at six week intervals. […] All of the patients during the evaluation period are evaluated by the measurement of the tumors, survival and determination of any progression of the disease in the patient. Stability is measured during each evaluation to determine if there is any increase in the size and amount of tumors from the proceeding period and if there is no subsequent appearance of any other malignancies in the patient. […]

[3] = C57BL/6, iv, mouse plasma, i.v., 10 mg/kg
[4] = C57BL/6, iv, mouse plasma, i.v., 100 mg/kg
[5] = C57BL/6, mouse plasma, oral, 10 mg/kg
[6] = C57BL/6, mouse plasma, oral, 100 mg/kg

In the case of `CC(C)c1ccc2oc3nc(N)c(C(=O)O)cc3c(=O)c2c1` [Amlexanox (salt), 2-amino-7-isopropyl-1-azaxanthone-3-carboxylic acid sodium salt], the AUC [1, 3] is reported as 31.3 µg·h/mL, the Cmax [1, 3] is reported as 55.7 µg/mL and the MRT [1, 3] is reported as 0.5 h. For the same compound, the clearance [1, 3] was 0.3 L/h/kg, the half-life [1, 3] was 0.4 h and the Vd [1, 3] was 0.2 L/kg. The AUC [1, 4] was 734 µg·h/mL, the Cmax [1, 4] was 590 µg/mL and the MRT [1, 4] was 1.2 h. The clearance [1, 4] was 0.01 L/h/kg, the half-life [1, 4] was 0.8 h and the Vd [1, 4] was 0.02 L/kg. The bioavailability ([1]; 10 mg/kg) was 61.7%, the bioavailability ([1]; 100 mg/kg) was 41.1% and the AUC [1, 5] was 19.3 µg·h/mL. For the same compound, the Cmax [1, 5] was 17.6 µg/mL, the MRT [1, 5] was 1.6 h and the half-life [1, 5] was 1.1 h. It also gave an AUC [1, 6] of 302 µg·h/mL, a Cmax [1, 6] of 206 µg/mL and an MRT [1, 6] of 2.2 h. It also gave a half-life [1, 6] of 1.5 h, a CL ([1]; mouse plasma, oral, 10 mg/kg) of 0.5 L/h/kg and a Vss ([1]; mouse plasma, oral, 10 mg/kg) of 0.8 L/kg. For the same compound, the Vss ([1]; mouse plasma, oral, 100 mg/kg) was 0.07 L/kg.

In the case of `CC(C)c1ccc2oc3nc(N)c(C(=O)O)cc3c(=O)c2c1` [Amlexanox, 2-amino-7-isopropyl-1-azaxanthone-3-carboxylic acid], the “percentage of patients with no progression of the disease by WHO and/or RECIST criteria, compared to the non-treated group” value [2] is reported as “greater percentage of the patients in the group of patients treated with the amlexanox show no progression of the disease”.
